How the values were obtained:
[1] = system: Melanocytes (Mel-Ab cells); experiment: Melanin production inhibiting effect in mouse melanocytes; format: cell-based; conditions: Mus musculus, Mel-Ab; read-out: Melanin production inhibiting rate (%)
Experimental: The melanin production inhibiting effect of the syringaresinol obtained in Example was evaluated using mouse melanocytes. First, melanocytes (Mel-Ab cells) derived from C57BL/6 (treated with Dooley et al.'s method) were cultured under the condition of 37° C. and 5% CO2 in Dulbecco's modified Eagle's medium (DMEM) containing 10% fetal bovine serum, 100 nM 12-O-tetradecanoylphorbol-13-acetate and 1 nM cholera toxin. […] After removing the culture medium and washing with PBS, the cells were dissolved with 1 N sodium hydroxide and absorbance was measured at 400 nm. Melanin production inhibiting rate (%) was calculated according to Equation 2 from the measured absorbance. Melanin production inhibiting rate (%)=100−(Absorbance of test substance) /(Absorbance of control substance)×100 [Equation 2]

[2] = Skin whitening effect when applied to UVB-tanned human skin; format: in vivo; conditions: 1% applied on upper arm after UVB, 10 weeks, 12 male subjects
Experimental: First, opaque tapes having holes of 1.5 cm in diameter were attached on the upper arms of 12 healthy male subjects and UVB of about 1.5-2 times the minimal erythemal dose was irradiated to each subject to induce skin tanning. […] Then, the change was monitored for 10 weeks. The color of the skin was measured with 1-week interval using the CR2002 colorimeter (Minolta, Japan). The change in skin color (ΔL*) between the time when the test substance was applied and the time when the test was completed was calculated according to Equation 3. Skin whitening effect is evaluated by comparing the ΔL* of the part where the test substance was applied with that of the control part. A ΔL* value of about 2 can be interpreted as distinct skin whitening effect and one about 1.5 can be evaluated as positive skin whitening effect.
ΔL*=(L* when test was completed)−(L* when test substance was applied) [Equation 3]

[3] = system: mushroom-derived tyrosinase; experiment: Tyrosinase activity inhibiting effect (dopachrome formation); format: biochemical; conditions: 10 ppm, 37° C. 10 minutes
Experimental: The reaction solution was prepared by adding 500 μL of 0.1 M PBS, 15 μg of L-tyrosine and 50 μL of syringaresinol and then adding distilled water to make the final volume 1500 μL. A solution prepared through the same procedure but with Kojic acid instead of syringaresinol was used as a positive control. The concentration of all the samples used in experiment was set to 10 ppm. After adding 10 units of mushroom-derived tyrosinase to the reaction solution, followed by reaction at 37° C. for 10 minutes, the reaction was stopped by quickly transferring onto ice for 5 minutes. The synthesis rate of dopachrome produced was determined by measuring absorbance at 475 nm and tyrosinase activity inhibiting rate (%) was calculated therefrom.

[4] = Skin whitening effect when orally administered, UV-irradiated brown guinea pig; format: in vivo; conditions: 1% in feed, 5 weeks, oral
Experimental: Minimal erythemal dose was measured after irradiating UV to guinea pigs. After grouping the guinea pigs with 10 per each group, UV of the minimal erythemal dose was irradiated once a day, for a total of 3 times. The guinea pigs were allowed free access to feed for 5 weeks. The feed contained 1% syringaresinol or 1% vitamin C (Vit C) as a positive control. Skin pigmentation was measure using a colorimeter in substantially the same manner as in Test Example 6.

## Oc1ccc(O)cc1 [Hydroquinone, hydroquinone, reference compound]
[1]
  inhibition at 10 ppm: 58.9%
[2]
  Change in skin brightness (ΔL*): 1.71 ± 0.31

## O=c1cc(CO)occ1O [Kojic acid, reference compound]
[3]
  Tyrosinase activity inhibiting rate (%): 67.8%

## O=C1O[C@H]([C@@H](O)CO)C(O)=C1O [Vitamin C, vitamin C, reference compound]
[4]
  Skin color brightness (ΔL*): 1.48 ± 0.71

Reference: patent US20150290105A1, “COMPOSITION COMPRISING SYRINGARESINOL FOR IMPROVING THE SKIN” (AMOREPACIFIC CORPORATION, priority 2011, published 2015)
